# Columns and labels:
# [1] = test system: Salmonella Typhimurium ATCC 14028; experiment: Antibiofilm assay (static peg assay, Calgary biofilm device, crystal violet staining; planktonic growth via OD600); format: cell-based, Salmonella enterica serovar Typhimurium
# Procedure: A static peg assay for the prevention of bacterial biofilm formation was used as described previously. A lid carrying 96 polystyrene pegs was fitted into a microtiter plate with a peg hanging into each well. Two-fold serial dilutions of the compounds in 100 μl liquid broth per well were prepared in the microtiter plate. Subsequently, an overnight culture was diluted 1:100 into the respective liquid broth, and 100 μl (˜10^6 cells) was added to each well of the microtiter plate, resulting in a total amount of 200 μl medium per well. After placing the lid on the microtiter plate, samples containing Salmonella, Pseudomonas or E. coli were incubated statically in TSB 1/20 for 48 h at 25° C., whereas S. aureus was incubated in undiluted TSB at 37° C. for 48 h. After incubation, the lid was removed from the microtiter plate and liquid culture was transferred to a new microtiter plate prior to determining the prior to determining the planktonic growth in each well via OD600 measurements using a Synergy MX multimode reader (Biotek, Winooski, VT). The pegs were washed once in 200 μl PBS and the remaining attached bacteria were stained for 30 min with 200 μl 0.1% crystal violet in an isopropanol-methanol-PBS solution (1:1:18). Excess stain was washed off by placing the pegs in a 96-well plate filled with 200 μl distilled water per well. Afterwards, the pegs were air dried for 30 min and the dye bound to the adherent cells dissolved into 200 μl 30% glacial acetic acid. The OD570 of each well was measured using a Synergy MX multimode reader. Data was analysed using the GraphPad Prism 6 software.
# [2] = test system: Salmonella genes related to biofilm formation; experiment: Microtiter-plate-based GFP promoter fusion assay; format: cell-based, Salmonella Typhimurium ATCC 14028; details: 100 μM
# Procedure: To unravel the mechanism by which agaric acid inhibits biofilm formation, an in house developed reporter GFP-promoter fusion library was screened. This library contains reporters for 130 Salmonella genes related to biofilm formation, including genes regulating matrix production, fimbriae and flagella synthesis, quorum sensing and c-di-GMP regulation (Table 2) [Robijns et al. (2014). Biofouling 30, 605-625.]. A time-lapse of the first 24 h of biofilm formation in microtiter plates was performed to identify genes that are differentially transcribed in the presence of 100 μM agaric acid. As these reporter fusions express the stable GFPmut3 variant as a fluorophore, the measured fluorescence values are the accumulation of fluorescence over time [Robijns et al. (2014). Biofouling 30, 605-625](FIG. 2).
# 1.5 μl of the reporter fusions' ONCs were transferred in three repeats to black polystyrene, clear-bottomed microtiter plates (Greiner bio-one 655096) containing 200 μl of 1/20 TSB with either a final concentration of 100 μM agaric or the corresponding amount of DMSO. Subsequently, the microtiter plates were incubated statically, at 25° C. for 24 h. Every 3 h, the fluorescence (excitation 488 nm, emission 511 nm) and absorbance at 600 nm (OD600) were measured using a Synergy MX multimode reader. For data analysis, blank measurements were subtracted from both the fluorescence (using a promoterless pFPV25 vector as control) and OD600. The ratio between the different OD600 values of the strains/conditions was used to normalize any effects on the fluorescence caused by growth differences in the bacteria. Significant differences in the level of fluorescence between treatment and control were determined using a two-tailed Student t-test (P<0.05).
# Salmonella = experiment: Soft agar swimming assay; format: cell-based, Salmonella enterica serovar Typhimurium; details: 100 μM, 0.25% agar, 24 h, 25° C.
# Procedure: Based on Kim & Surette (2003) Biol Proced Online 5, 189-196, swimming plates were made by mixing 30 ml TSB 1/20 with 0.25% agar. These plates contained either a final concentration of 100 μM agaric or the corresponding amount of DMSO. After 2 h drying at room temperature, 3 μl of an overnight culture was inoculated by piercing the surface of the agar with the pipette tip. The plates were incubated upright for 24 h at 25° C., afterwards the size of the halo was measured and visually recorded.
compound,measurement,setting,value
"CCCCCCCCCCCCCCCCC(C(=O)O)C(O)(CC(=O)O)C(=O)O (stereo not drawn) [Agaric acid, 2-hydroxynonadecane-1,2,3-tricarboxylic acid]",inhibition at 800 µM,"[1]; Salmonella enterica, at 800 μM, crystal violet staining, read-out: inhibition of biofilm formation",99.9%
same,planktonic growth (OD600),[1]; after 48 h incubation in the Calgary biofilm device,not inhibited
same,concentrations at which biofilm formation is significantly prevented,"[1]; crystal violet staining, TSB 1/20, 48 h, 25° C.",higher than 100 μM
same,planktonic growth (OD600) at the highest concentration,[1]; highest concentration tested,enhanced
same,"transcription of class III flagellar genes flgM, flgK and motA",[2],significantly reduced
same,"transcription of tdcA, flgB, fljB and fliC",[2],not decreased at consecutive points
same,transcription of flhDC,[2]; between 9 h and 15 h,increased compared to the control
same,transcription of csgB and adrA,[2]; first 24 h,not influenced
same,transcription of central biofilm regulatory genes CsgD and RpoS,[2]; first 24 h of biofilm formation,not downregulated
same,transcription of flagellar sigma factor fliA,[2]; from 12 h onwards,significantly inhibited
same,swimming motility (halo formation),Salmonella,no halo was formed
same,swimming motility (halo formation),Salmonella; listed as agaric acid,almost completely inhibited motility
